Reference: patent US11485714B2, “Hydroxyethylamine-based piperazine compounds, and methods of producing and using the same for treating disease” (National Institute of Immunology, priority 2020, dated 2022)
Like-named read-outs stand apart in the source and are kept apart here. Marks after values point to notes of the source that are not given here.

Key:
human platelets = experiment: Agonist-induced platelet aggregation; assay type: cell-based; details: up to 20 μg/ml
Method: Studies were performed to assess the effect of Calxinin on hemostatic parameters using plasmatic and whole blood assays.

[1] = tested on: P. berghei sporozoites in HepG2 cells; experiment: Liver stage infection in HepG2 cells, qPCR of 18SrRNA; assay type: cell-based, Plasmodium berghei; details: for IC50: read-out: in-vitro liver stage IC50
Excerpt: Liver stage infection in HepG2 cells: Salivary glands of Anopheles stephensi mosquitoes infected with green fluorescent protein (GFP)-expressing P. berghei ANKA (Insectary at National Institute of Immunology, New Delhi, India) were dissected out. Sporozoites were perched in complete medium (Dulbecco's Modified Eagle Medium (DMEM)) with 10% fetal bovine serum (FBS), 3% penicillin-streptomycin (P/S)), and allowed to infect HepG2 cells. The cells were already treated with Calxinin at various concentrations (0.1 μM, 1 μM and 10 μM). The plate was centrifuged at 3000 rpm for 5 minutes to ensure the sporozoites settled down in the plate, and then placed in the incubation at 37° C. for 3 hours. Afterwards, media was replaced with pre-warmed medium (DMEM, 10% FBS, 3% P/S, and 0.1% Fungizone) supplemented with dimethyl sulfoxide (DMSO), and Calxinin at indicated concentrations. After two days, the cells were treated with Trizol and […] at −80° C. RNA isolation followed by reverse transcription polymerase chain reaction (RTPCR) was done to estimate the parasite load in the infected cells.
Compound I was tested in vitro against Plasmodium liver stage parasites. HepG2 cells, a human hepatocyte cell line, were infected with Plasmodium berghie sporozoites (mosquito infective forms of malaria). One set of cells was treated with 0.4, 2.0 and 10.0 micromolar concentration of inhibitor Compound I, and the other set was left untreated. Sporozoite infection time was considered as zero time. Twenty-four hours after infection the culture media was refreshed and the inhibitors were replenished. After forty-eight hours, total cells were harvested and total RNA was extracted by the Trizol™ method. RNA was converted into cDNA and realtime PCR was performed using the parasite 18SrRNA primers. This determined the liver stage parasite burden, which was then converted into percent inhibition by comparing with the untreated set.
Liver schizont stages are the first stage of human infection after injection of sporozoites by mosquitoes. The activity of compounds against this stage offers the important part of the antimalarial therapy, chemoprotection. To evaluate the efficacy of Compound I against liver stage parasites, HepG2 cells were infected with P. berghei sporozoites, in triplicates, and dosed with 0.1, 1, 10 μM of Compound I dissolved in 1% DMSO. The parasite load was quantified in control and Compound I-treated cells by quantitative PCR (qPCR) using parasite specific 18SrRNA primers. […] Inhibitory effect decreases up to 61% while treating cells with 10 μM due to precipitation of compound at higher concentration (FIG. 3). […] The liver stage activity of Compound I is much higher over the current treatments, atovaquone (ATQ) in culture.

[2] = tested on: P. berghei ANKA sporozoites; experiment: Liver-stage infection in mice by mosquito bites, treatment and survival; assay type: in vivo
Method: [1] Liver-stage infection in mice, treatment and survival assay: GFP-expressing P. berghei ANKA were grown in Anopheles stephensi mosquitoes in the insectary at National Institute of Immunology (New Delhi, India). Sporozoite count per salivary gland and infectivity was determined before the experimental infection of mice by the mosquito bites. Briefly, anaesthetized mice were exposed to a cage of sporozoite carrying starved mosquitoes (100 mosquito/5 mouse) for 15 minutes with intermittent disturbing of mosquito every 2-3 minute in order to encourage biting and injection of more sporozoite. Biting was done at 22+1° C. and dark condition maintained in an incubator. First dose (10 mg/Kg) was given 24 hours before the infection, second dose was given two hours post sporozoite challenge (biting) drug was given intraperitonially (I.P). Remaining dosages were given 24 h post challenge.
[2] For calculating parasite load, liver of experimental mice were isolated 50 h post infection. Mice were anesthetized, abdominal area sterilized with 70% ethanol and liver dissected out. Liver was homogenized in precold denaturating solution. RNAs were isolated from the homogenized sample followed by Real Time polymerase chain reaction (PCR).
Prompted by the notable in vitro liver stage activity, mice were infected with sporozoites through mosquito bites to test the efficacy of Compound I on liver stage infection in mouse models. The infected mice were treated with fixed dose of 10 mg/kg for three days. Liver stage P. berghei parasites mature into merozoites in about 55 hours. […] To understand the pre-patient period and delay, the starting of blood stage parasite infection was monitored after three days post challenge by observing Giemsa stained smears. […] Single day delay in blood stage infection corresponds to about 10-fold decrease in liver parasite burden. Experimental mice were kept for survival studies after treatment with Compound 1 (10 mg/kg) and death day was noted.
The percentage of parasitemia remained low until day 7 post-sporozoite challenges.

[3] = tested on: Plasmodium berghei NK-65 (chloroquine-resistant); experiment: In vivo blood stage mouse model, modified Peters four-day suppressive test
Method: Specifically, a murine model of malaria was developed wherein thirty healthy Swiss albino mice were inoculated intraperitoneally with 1×10^7 Plasmodium berghei NK-65 (chloroquine-resistant) infected red blood cells (RBCs) suspended in RPMI 1640 medium (commercially available from Thermo Fisher Scientific Inc.; 200 μL). A first set of the infected mice was treated each day with a single dose of 50 mg/kg of Compound I, and a second set was not treated. The survival of the mice was monitored to day 30 post-infection using a Kaplan-Meier survival analysis, and the statistical difference in animal survival was analyzed by a log rank test. Representative data for the percent parasitemia for untreated mice (control) and mice treated with Compound I are shown in Table 4 and FIG. 2A and FIG. 2B.
Activity of Compound I (Calxinin) was tested using a slightly modified version of Peter's 4-day suppressive test: initial infection of mice with P. berghei parasites, followed one dose 50 mg/kg of drug treatment, followed by monitoring of parasitemia as well as external signs of disease progression for up to 10 days.
10^7 Plasmodium berghei NK-65 (CQ-resistant) were administered by i.p into Swiss albino mice (6 mice/group). Infected mice were either treated with Compound I (Calxinin) or injected with DMSO alone (untreated vehicle control). […] The survival of the mice was followed up to day 30 post-infection using Kaplan-Meier survival analysis (FIG. 6B). Animal survival was analyzed by a log rank test.

**Q.** With NC(Cc1ccccc1)C(O)CN1CCN(Cc2ccc(C(F)(F)F)cc2)CC1 (stereo not drawn) [Compound I] as the molecule, how does the “agonist-induced aggregation of human platelets” value (human platelets) read?
**A.** did not alter agonist-induced aggregation of human platelets

**Q.** And the inhibition at 0.1 µM ([1]; Plasmodium berghei, HepG2, 0.1 μM, read-out: inhibition of liver stage parasite load)?
**A.** ~60%

**Q.** And the inhibition at 1 µM ([1]; Plasmodium berghei, HepG2, 1 μM, read-out: inhibition of liver stage parasite load)?
**A.** ~88%

**Q.** What about the inhibition at 10 µM ([1]; Plasmodium berghei, HepG2, 10 μM, precipitation of compound, read-out: inhibition of liver stage parasite load) of the same molecule?
**A.** ≤ 61%

**Q.** What about the IC50 ([1]; Plasmodium berghei, HepG2) of the same molecule?
**A.** 79 nM

**Q.** And the IC50 ([1]; listed as Calxinin)?
**A.** 65 nM

**Q.** And the “Mean survival time (MST)” value ([2]; 10 mg/kg)?
**A.** about 9 days

**Q.** What about the “decrease in liver parasite burden corresponding to the delay” value ([2]; 10 mg/kg) of the same molecule?
**A.** about 10 fold

**Q.** And the “delay in the prepatent period” value ([2]; 10 mg/kg)?
**A.** One day's delay

**Q.** And the “inhibition of liver stage infection in mice” value ([2]; 10 mg/kg for three days, I.P)?
**A.** 30%

**Q.** And the “activity against mixed blood stages” value ([3]; 50 mg/kg/day (single dose), NK64 strain)?
**A.** significant activity

**Q.** And the “Percent Parasitemia Day 3” value ([3]; Table 4, 50 mg/kg each day)?
**A.** 0.21 ** (P < 0.001)

**Q.** What about the “Percent Parasitemia Day 7” value ([3]; Table 4, 50 mg/kg each day) of the same molecule?
**A.** 2.45 * (P < 0.03)

**Q.** What about the “Percent Parasitemia Day 10” value ([3]; Table 4, 50 mg/kg each day) of the same molecule?
**A.** 12.3 * (P < 0.01)

**Q.** And the “% Parasitemia Day 3” value ([3]; Table 5, one dose 50 mg/kg)?
**A.** 0.21 ** (P < 0.001) %

**Q.** What about the “% Parasitemia Day 7” value ([3]; Table 5, one dose 50 mg/kg) of the same molecule?
**A.** 2.45 * (P < 0.03) %

**Q.** And the “% Parasitemia Day 10” value ([3]; Table 5, one dose 50 mg/kg)?
**A.** 12.3 * (P < 0.01) %

**Q.** And the “reduction in parasite load” value ([3]; single dose 10 mg/kg, P. berghei NK64, mixed blood stage parasites)?
**A.** 30%
